According to PMC3914206:

What was measured:
Assay type in all cases: binding
Parameters in all cases: KINOMEscan: ABL1(F317L)-phosphorylated / KINOMEscan: ABL1(H396P)-nonphosphorylated / KINOMEscan: ABL1(H396P)-phosphorylated / KINOMEscan: ABL1(M351T)-phosphorylated / KINOMEscan: ABL1(T315I)-phosphorylated / KINOMEscan: ABL1-nonphosphorylated / KINOMEscan: ABL1-phosphorylated / KINOMEscan: ACVR2A / KINOMEscan: ACVR2B / KINOMEscan: ADCK3 / KINOMEscan: ADCK4 / KINOMEscan: AKT1 / KINOMEscan: AKT3 / KINOMEscan: ALK / KINOMEscan: ARK5 / KINOMEscan: AURKA / KINOMEscan: AURKC / KINOMEscan: BIKE / KINOMEscan: BMPR1A / KINOMEscan: BMPR1B / KINOMEscan: BMX / KINOMEscan: BRK / KINOMEscan: BRSK1 / KINOMEscan: BRSK2 / KINOMEscan: CAMK1 / KINOMEscan: CAMK1D / KINOMEscan: CAMK1G / KINOMEscan: CAMK2A / KINOMEscan: CAMK2B / KINOMEscan: AAK1 / KINOMEscan: CAMK2D / KINOMEscan: CAMK2G / KINOMEscan: ABL1(F317I)-nonphosphorylated / KINOMEscan: ABL1(F317I)-phosphorylated / KINOMEscan: ABL1(F317L)-nonphosphorylated: unit: % Ctrl
Settings in all cases: Compound Concentration 10 µM
panel of 442 kinases [1] = molecular target: T1, panel of 442 kinases (Homo sapiens, UniProt O14965)
T1 construct: purchased KINOMEscan
T1 sequence (O14965 1-403): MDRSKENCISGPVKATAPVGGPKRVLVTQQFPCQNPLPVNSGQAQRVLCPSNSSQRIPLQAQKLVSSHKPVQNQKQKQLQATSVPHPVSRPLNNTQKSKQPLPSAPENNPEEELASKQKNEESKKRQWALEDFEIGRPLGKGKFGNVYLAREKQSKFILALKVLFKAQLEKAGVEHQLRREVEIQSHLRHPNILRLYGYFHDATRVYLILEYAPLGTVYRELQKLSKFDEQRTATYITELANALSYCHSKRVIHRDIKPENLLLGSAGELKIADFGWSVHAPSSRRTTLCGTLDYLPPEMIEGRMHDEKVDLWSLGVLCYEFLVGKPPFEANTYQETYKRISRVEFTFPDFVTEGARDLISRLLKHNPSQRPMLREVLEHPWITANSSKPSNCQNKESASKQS
Excerpt: (§1) We assessed the selectivity of members of this scaffold using the KINOMEscan methodology across a near comprehensive panel of 442 kinases [[18,27]].

panel of 442 kinases [2] = molecular target: T2, panel of 442 kinases (Mycobacterium tuberculosis, UniProt P9WI81)
T2 construct: purchased KINOMEscan
T2 sequence (P9WI81 whole entry): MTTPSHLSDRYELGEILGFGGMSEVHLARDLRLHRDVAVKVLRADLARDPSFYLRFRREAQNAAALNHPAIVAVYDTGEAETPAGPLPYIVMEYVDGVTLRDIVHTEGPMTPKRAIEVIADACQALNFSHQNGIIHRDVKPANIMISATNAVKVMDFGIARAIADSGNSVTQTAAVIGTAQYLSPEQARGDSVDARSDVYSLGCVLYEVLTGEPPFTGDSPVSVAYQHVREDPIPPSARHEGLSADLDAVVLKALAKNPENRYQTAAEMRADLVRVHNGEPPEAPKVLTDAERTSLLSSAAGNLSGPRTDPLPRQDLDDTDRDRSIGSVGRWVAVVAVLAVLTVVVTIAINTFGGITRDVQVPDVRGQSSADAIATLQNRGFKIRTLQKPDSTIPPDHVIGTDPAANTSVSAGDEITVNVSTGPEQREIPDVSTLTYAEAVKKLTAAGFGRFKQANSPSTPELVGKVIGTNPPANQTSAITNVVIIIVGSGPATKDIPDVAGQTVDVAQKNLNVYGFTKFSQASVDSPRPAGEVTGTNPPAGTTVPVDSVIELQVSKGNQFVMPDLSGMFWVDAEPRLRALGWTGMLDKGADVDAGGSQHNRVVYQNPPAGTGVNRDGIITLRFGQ
Excerpt: as §1

panel of 442 kinases [3] = molecular target: T3, panel of 442 kinases (Homo sapiens, UniProt P28482)
T3 construct: purchased KINOMEscan
T3 sequence (P28482 whole entry): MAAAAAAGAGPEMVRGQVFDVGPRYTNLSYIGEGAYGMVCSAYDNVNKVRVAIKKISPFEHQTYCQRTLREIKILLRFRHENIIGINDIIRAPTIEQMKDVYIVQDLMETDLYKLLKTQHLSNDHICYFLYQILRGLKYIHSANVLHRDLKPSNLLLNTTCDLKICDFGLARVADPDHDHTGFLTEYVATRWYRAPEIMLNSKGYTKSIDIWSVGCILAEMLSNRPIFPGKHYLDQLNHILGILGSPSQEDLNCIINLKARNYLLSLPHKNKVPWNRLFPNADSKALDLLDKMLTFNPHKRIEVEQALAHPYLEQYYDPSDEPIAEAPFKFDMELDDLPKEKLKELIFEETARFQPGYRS
Excerpt: as §1

| SMILES | KINOMEscan: AURKA (panel of 442 kinases [1]) | KINOMEscan: PKNB(M.tuberculosis) (panel of 442 kinases [2]) | KINOMEscan: ERK2 (panel of 442 kinases [3]) |
| --- | --- | --- | --- |
| COc1cc(C(=O)N2CCC(N3CCN(C)CC3)CC2)ccc1Nc1ncc2c(n1)N(C)c1ccccc1C(=O)N2C [15 (LRRK2-IN-1)] | 1.2 | 100 | 85 |
| COc1cc(C(=O)N2CCC(N3CCN(C)CC3)CC2)ccc1Nc1ncc2c(n1)N1CCc3cccc(c31)C(=O)N2C [Compound 24] | 28 | 98 | 88 |
| COc1cc(C(=O)N2CCC(N3CCN(C)CC3)CC2)ccc1Nc1ncc2c(n1)N(C1CCCC1)c1ccccc1C(=O)N2C [Compound 25, 11-cyclopentyl-2-((2-methoxy-4-(4-(4-methylpiperazin-1-yl)piperidine-1-carbonyl)phenyl)amino)-5-methyl-5H-benzo[e]pyrimido[5,4-b][1,4]diazepin-6(11H)-one] | 28 | 100 | 98 |
| CCOc1cc(C(=O)N2CCC(N3CCN(C)CC3)CC2)ccc1Nc1ncc2c(n1)N(C1CCCC1)c1ccccc1C(=O)N2C [Compound 26] | 100 | 96 | 100 |
